In patent US11498899B2, “Nitrone herbicides” (FMC Corporation, priority 2016, dated 2022):

Legend:
[1] = tested on: barnyardgrass (Echinochloa crus-galli); assay: Test A preemergence, visual injury rating 0-100 (0 no effect, 100 complete control); format: in vivo; settings: for Barnyardgrass plant response rating (0 to 100 scale): 125 g ai/ha; for Barnyardgrass plant response rating: 500 g ai/ha, 0 to 100 scale
[2] = tested on: foxtail, green (green foxtail, Setaria viridis); assay: Test A preemergence, visual injury rating 0-100; format: in vivo; settings: for Foxtail, Green plant response rating: 0 to 100 scale
kochia (Kochia scoparia) [3] = assay: Test A preemergence, visual injury rating 0-100; format: in vivo; settings: for Kochia plant response rating: 0 to 100 scale
[4] = tested on: pigweed (Amaranthus retroflexus); assay: Test A preemergence, visual injury rating 0-100; format: in vivo; settings: for Pigweed plant response rating: 0 to 100 scale
[5] = tested on: ragweed (common ragweed, Ambrosia elatior); assay: Test A preemergence, visual injury rating 0-100; format: in vivo; settings: for Ragweed plant response rating: 0 to 100 scale
[6] = tested on: ryegrass, Italian (Italian ryegrass, Lolium multiflorum); assay: Test A preemergence, visual injury rating 0-100; format: in vivo; settings: for Ryegrass, Italian plant response rating: 0 to 100 scale
[7] = tested on: barnyardgrass (Echinochloa crus-galli); assay: Test A postemergence, visual injury rating 0-100; format: in vivo; settings: 0 to 100 scale
[8] = tested on: blackgrass (Alopecurus myosuroides); assay: Test A postemergence, visual injury rating 0-100; format: in vivo; settings: 0 to 100 scale
corn (Zea mays) = assay: Test A postemergence, visual injury rating 0-100; format: in vivo; settings: 0 to 100 scale
[9] = tested on: foxtail, green (green foxtail, Setaria viridis); assay: Test A postemergence, visual injury rating 0-100; format: in vivo; settings: 0 to 100 scale
[10] = tested on: galium (catchweed bedstraw, Galium aparine); assay: Test A postemergence, visual injury rating 0-100; format: in vivo; settings: 0 to 100 scale
kochia (Kochia scoparia) [11] = assay: Test A postemergence, visual injury rating 0-100; format: in vivo; settings: 0 to 100 scale
[12] = tested on: pigweed (Amaranthus retroflexus); assay: Test A postemergence, visual injury rating 0-100; format: in vivo; settings: 0 to 100 scale
[13] = tested on: ragweed (common ragweed, Ambrosia elatior); assay: Test A postemergence, visual injury rating 0-100; format: in vivo; settings: 0 to 100 scale
[14] = tested on: ryegrass, Italian (Italian ryegrass, Lolium multiflorum); assay: Test A postemergence, visual injury rating 0-100; format: in vivo; settings: 0 to 100 scale
[15] = tested on: wheat (Triticum aestivum); assay: Test A postemergence, visual injury rating 0-100; format: in vivo; settings: 0 to 100 scale
[16] = tested on: ducksalad (Heteranthera limosa); assay: Test B flooded paddy test, visual rating 0-100; settings: Flood, 250 g ai/ha, applied to paddy water, rated after 13 to 15 days
[17] = tested on: barnyardgrass (Echinochloa crus-galli); assay: Test B flooded paddy test, visual rating 0-100; settings: Flood, 250 g ai/ha, applied to paddy water, rated after 13 to 15 days
rice (Oryza sativa) = assay: Test B flooded paddy test, visual rating 0-100 (0 no effect, 100 complete control); settings: Flood, 250 g ai/ha, applied to paddy water, rated after 13 to 15 days

Structure (SMILES): CC1=[N+]([O-])C(C(=O)Nc2cccc(F)c2F)C(c2ccccc2F)C1 (racemic) [Compound 21]
- Barnyardgrass plant response rating (0 to 100 scale) [1]: 10
- Barnyardgrass plant response rating [1]: 90
- Foxtail, Green plant response rating (0 to 100 scale) ([2]; 125 g ai/ha): 20
- Foxtail, Green plant response rating ([2]; 500 g ai/ha): 90
- Kochia plant response rating (0 to 100 scale) (kochia (Kochia scoparia) [3]; 125 g ai/ha): 0
- Kochia plant response rating (kochia (Kochia scoparia) [3]; 500 g ai/ha): 40
- Pigweed plant response rating (0 to 100 scale) ([4]; 125 g ai/ha): 0
- Pigweed plant response rating ([4]; 500 g ai/ha): 0
- Ragweed plant response rating (0 to 100 scale) ([5]; 125 g ai/ha): 0
- Ragweed plant response rating ([5]; 500 g ai/ha): 0
- Ryegrass, Italian plant response rating (0 to 100 scale) ([6]; 125 g ai/ha): 0
- Ryegrass, Italian plant response rating ([6]; 500 g ai/ha): 0
- Barnyardgrass plant response rating ([7]; 125 g ai/ha): 0
- Barnyardgrass plant response rating ([7]; 500 g ai/ha): 50
- Blackgrass plant response rating ([8]; 125 g ai/ha): 0
- Blackgrass plant response rating ([8]; 500 g ai/ha): 20
- Corn plant response rating (corn (Zea mays); 125 g ai/ha): 0
- Corn plant response rating (corn (Zea mays); 500 g ai/ha): 20
- Foxtail, Green plant response rating ([9]; 125 g ai/ha): 0
- Foxtail, Green plant response rating ([9]; 500 g ai/ha): 20
- Galium plant response rating ([10]; 125 g ai/ha): 0
- Galium plant response rating ([10]; 500 g ai/ha): 0
- Kochia plant response rating (kochia (Kochia scoparia) [11]; 125 g ai/ha): 0
- Kochia plant response rating (kochia (Kochia scoparia) [11]; 500 g ai/ha): 0
- Pigweed plant response rating ([12]; 125 g ai/ha): 0
- Pigweed plant response rating ([12]; 500 g ai/ha): 0
- Ragweed plant response rating ([13]; 125 g ai/ha): 0
- Ragweed plant response rating ([13]; 500 g ai/ha): 0
- Ryegrass, Italian plant response rating ([14]; 125 g ai/ha): 0
- Ryegrass, Italian plant response rating ([14]; 500 g ai/ha): 0
- Wheat plant response rating ([15]; 125 g ai/ha): 0
- Wheat plant response rating ([15]; 500 g ai/ha): 0
- Ducksalad plant response rating (0 to 100 scale) [16]: 80
- Barnyardgrass plant response rating (0 to 100 scale) [17]: 40
- Rice plant response rating (0 to 100 scale) (rice (Oryza sativa)): 0

Structure (SMILES): CC1=[N+]([O-])C(C(=O)Nc2cccc(C#N)c2F)C(c2ccc(C(F)(F)F)cc2)C1 (racemic) [Compound 28]
- Barnyardgrass plant response rating (0 to 100 scale) [1]: 80
- Barnyardgrass plant response rating [1]: 100
- Foxtail, Green plant response rating (0 to 100 scale) ([2]; 125 g ai/ha): 90
- Foxtail, Green plant response rating ([2]; 500 g ai/ha): 100
- Kochia plant response rating (0 to 100 scale) (kochia (Kochia scoparia) [3]; 125 g ai/ha): 0
- Kochia plant response rating (kochia (Kochia scoparia) [3]; 500 g ai/ha): 70
- Pigweed plant response rating (0 to 100 scale) ([4]; 125 g ai/ha): 90
- Pigweed plant response rating ([4]; 500 g ai/ha): 100
- Ragweed plant response rating (0 to 100 scale) ([5]; 125 g ai/ha): 80
- Ragweed plant response rating ([5]; 500 g ai/ha): 100
- Ryegrass, Italian plant response rating (0 to 100 scale) ([6]; 125 g ai/ha): 20
- Ryegrass, Italian plant response rating ([6]; 500 g ai/ha): 20
- Barnyardgrass plant response rating ([7]; 125 g ai/ha): 20
- Barnyardgrass plant response rating ([7]; 500 g ai/ha): 90
- Blackgrass plant response rating ([8]; 125 g ai/ha): 0
- Blackgrass plant response rating ([8]; 500 g ai/ha): 40
- Corn plant response rating (corn (Zea mays); 125 g ai/ha): 0
- Corn plant response rating (corn (Zea mays); 500 g ai/ha): 0
- Foxtail, Green plant response rating ([9]; 125 g ai/ha): 30
- Foxtail, Green plant response rating ([9]; 500 g ai/ha): 90
- Galium plant response rating ([10]; 125 g ai/ha): 70
- Galium plant response rating ([10]; 500 g ai/ha): 70
- Kochia plant response rating (kochia (Kochia scoparia) [11]; 125 g ai/ha): 0
- Kochia plant response rating (kochia (Kochia scoparia) [11]; 500 g ai/ha): 20
- Pigweed plant response rating ([12]; 125 g ai/ha): 0
- Pigweed plant response rating ([12]; 500 g ai/ha): 70
- Ragweed plant response rating ([13]; 125 g ai/ha): 0
- Ragweed plant response rating ([13]; 500 g ai/ha): 70
- Ryegrass, Italian plant response rating ([14]; 125 g ai/ha): 0
- Ryegrass, Italian plant response rating ([14]; 500 g ai/ha): 20
- Wheat plant response rating ([15]; 125 g ai/ha): 0
- Wheat plant response rating ([15]; 500 g ai/ha): 0
- Ducksalad plant response rating (0 to 100 scale) [16]: 0
- Barnyardgrass plant response rating (0 to 100 scale) [17]: 30
- Rice plant response rating (0 to 100 scale) (rice (Oryza sativa)): 0

Structure (SMILES): CSc1ccccc1NC(=O)C1C(c2ccc(C(F)(F)F)cc2)CC(C)=[N+]1[O-] (racemic) [Compound 29]
- Barnyardgrass plant response rating (0 to 100 scale) [1]: 0
- Barnyardgrass plant response rating [1]: 80
- Foxtail, Green plant response rating (0 to 100 scale) ([2]; 125 g ai/ha): 20
- Foxtail, Green plant response rating ([2]; 500 g ai/ha): 100
- Kochia plant response rating (0 to 100 scale) (kochia (Kochia scoparia) [3]; 125 g ai/ha): 0
- Kochia plant response rating (kochia (Kochia scoparia) [3]; 500 g ai/ha): 20
- Pigweed plant response rating (0 to 100 scale) ([4]; 125 g ai/ha): 10
- Pigweed plant response rating ([4]; 500 g ai/ha): 90
- Ragweed plant response rating (0 to 100 scale) ([5]; 125 g ai/ha): 20
- Ragweed plant response rating ([5]; 500 g ai/ha): 100
- Ryegrass, Italian plant response rating (0 to 100 scale) ([6]; 125 g ai/ha): 0
- Ryegrass, Italian plant response rating ([6]; 500 g ai/ha): 20
- Barnyardgrass plant response rating ([7]; 125 g ai/ha): 10
- Barnyardgrass plant response rating ([7]; 500 g ai/ha): 30
- Blackgrass plant response rating ([8]; 125 g ai/ha): 20
- Blackgrass plant response rating ([8]; 500 g ai/ha): 30
- Corn plant response rating (corn (Zea mays); 125 g ai/ha): 0
- Corn plant response rating (corn (Zea mays); 500 g ai/ha): 0
- Foxtail, Green plant response rating ([9]; 125 g ai/ha): 20
- Foxtail, Green plant response rating ([9]; 500 g ai/ha): 50
- Galium plant response rating ([10]; 125 g ai/ha): 40
- Galium plant response rating ([10]; 500 g ai/ha): 60
- Kochia plant response rating (kochia (Kochia scoparia) [11]; 125 g ai/ha): 0
- Kochia plant response rating (kochia (Kochia scoparia) [11]; 500 g ai/ha): 0
- Pigweed plant response rating ([12]; 125 g ai/ha): 10
- Pigweed plant response rating ([12]; 500 g ai/ha): 30
- Ragweed plant response rating ([13]; 125 g ai/ha): 0
- Ragweed plant response rating ([13]; 500 g ai/ha): 60
- Ryegrass, Italian plant response rating ([14]; 125 g ai/ha): 0
- Ryegrass, Italian plant response rating ([14]; 500 g ai/ha): 0
- Wheat plant response rating ([15]; 125 g ai/ha): 0
- Wheat plant response rating ([15]; 500 g ai/ha): 0
- Ducksalad plant response rating (0 to 100 scale) [16]: 0
- Barnyardgrass plant response rating (0 to 100 scale) [17]: 0
- Rice plant response rating (0 to 100 scale) (rice (Oryza sativa)): 0

Structure (SMILES): CC1=[N+]([O-])C(C(=O)Nc2ccccc2C#N)C(c2ccc(C(F)(F)F)cc2)C1 (racemic) [Compound 32]
- Barnyardgrass plant response rating (0 to 100 scale) [1]: 0
- Barnyardgrass plant response rating [1]: 100
- Foxtail, Green plant response rating (0 to 100 scale) ([2]; 125 g ai/ha): 10
- Foxtail, Green plant response rating (0 to 100 scale) ([2]; 500 g ai/ha): 100
- Kochia plant response rating (0 to 100 scale) (kochia (Kochia scoparia) [3]; 125 g ai/ha): 0
- Kochia plant response rating (0 to 100 scale) (kochia (Kochia scoparia) [3]; 500 g ai/ha): 70
- Pigweed plant response rating (0 to 100 scale) ([4]; 125 g ai/ha): 0
- Pigweed plant response rating (0 to 100 scale) ([4]; 500 g ai/ha): 80
- Ragweed plant response rating (0 to 100 scale) ([5]; 125 g ai/ha): 70
- Ragweed plant response rating (0 to 100 scale) ([5]; 500 g ai/ha): 100
- Ryegrass, Italian plant response rating (0 to 100 scale) ([6]; 125 g ai/ha): 10
- Ryegrass, Italian plant response rating (0 to 100 scale) ([6]; 500 g ai/ha): 10
- Barnyardgrass plant response rating ([7]; 125 g ai/ha): 20
- Barnyardgrass plant response rating ([7]; 500 g ai/ha): 40
- Blackgrass plant response rating ([8]; 125 g ai/ha): 0
- Blackgrass plant response rating ([8]; 500 g ai/ha): 20
- Corn plant response rating (corn (Zea mays); 125 g ai/ha): 10
- Corn plant response rating (corn (Zea mays); 500 g ai/ha): 50
- Foxtail, Green plant response rating ([9]; 125 g ai/ha): 20
- Foxtail, Green plant response rating ([9]; 500 g ai/ha): 50
- Galium plant response rating ([10]; 125 g ai/ha): 70
- Galium plant response rating ([10]; 500 g ai/ha): 80
- Kochia plant response rating (kochia (Kochia scoparia) [11]; 125 g ai/ha): 0
- Kochia plant response rating (kochia (Kochia scoparia) [11]; 500 g ai/ha): 20
- Pigweed plant response rating ([12]; 125 g ai/ha): 0
- Pigweed plant response rating ([12]; 500 g ai/ha): 20
- Ragweed plant response rating ([13]; 125 g ai/ha): 0
- Ragweed plant response rating ([13]; 500 g ai/ha): 20
- Ryegrass, Italian plant response rating ([14]; 125 g ai/ha): 0
- Ryegrass, Italian plant response rating ([14]; 500 g ai/ha): 0
- Wheat plant response rating ([15]; 125 g ai/ha): 0
- Wheat plant response rating ([15]; 500 g ai/ha): 0
- Ducksalad plant response rating (0 to 100 scale) [16]: 0
- Barnyardgrass plant response rating (0 to 100 scale) [17]: 0
- Rice plant response rating (0 to 100 scale) (rice (Oryza sativa)): 0
